Counter-ions that a name gives are not always drawn.
Assays:
Ca^2+ channel = molecular target: T1, Ca^2+ channel (Rattus norvegicus, UniProt P22002); assay: verapamil binding study in rat heart membrane preparation; settings: [^3H]desmethoxyverapamil binding
T1 construct: from tissue; host or cells: rat heart membrane preparation
Protocol: The adverse effect on Ca^2+ channel binding affinity is determined by verapamil binding study in rat heart membrane preparation. More specifically, verapamil binding study is performed as previously described by Reynolds et al, J. Pharmacol. Exp. Ther., 237, 731 (1986). Briefly, incubations are initiated by the addition of tissue to tubes containing 0.25 nM [^3H]desmethoxyverapamil and various concentrations of compounds (total volume 1 ml). Nonspecific binding is defined as radioligand binding remaining in the presence of 3-10 µM methoxyverapamil.

[1] = molecular target: T2, substance P receptor sites in IM-9 cells (Homo sapiens, UniProt P25103); assay: IM-9 binding assay (inhibition of [^3H]SP binding); settings: inhibition of [^3H]SP binding to human IM-9 cells
T2 construct: endogenous in cells; host or cells: human IM-9 cells
T2 sequence (P25103 whole entry): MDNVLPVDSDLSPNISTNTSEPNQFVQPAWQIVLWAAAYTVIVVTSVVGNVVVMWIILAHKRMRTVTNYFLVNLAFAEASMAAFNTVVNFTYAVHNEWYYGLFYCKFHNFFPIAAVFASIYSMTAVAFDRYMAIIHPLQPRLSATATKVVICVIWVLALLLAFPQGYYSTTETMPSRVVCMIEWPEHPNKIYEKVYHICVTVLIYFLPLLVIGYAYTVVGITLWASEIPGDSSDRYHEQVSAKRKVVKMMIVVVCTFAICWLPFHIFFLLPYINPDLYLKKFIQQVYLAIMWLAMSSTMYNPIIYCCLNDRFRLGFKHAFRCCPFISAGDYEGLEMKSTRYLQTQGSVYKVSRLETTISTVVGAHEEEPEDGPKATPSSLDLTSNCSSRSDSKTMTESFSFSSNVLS
Protocol: The activity of the compounds of the present invention, as substance P antagonists, is determined by their ability to inhibit the binding of substance P at its receptor sites in IM-9 cells employing radioactive ligands. The substance P antagonist activity of the herein described compounds is evaluated by using the standard assay procedure described by D. G. Payan et al as reported in J. Immunology, 133, 3260 (1984). This method essentially involves determining the concentration of the individual compound required to reduce by 50% the amount of radiolabeled substance P ligands at their receptor sites in said isolated cow tissues or IM-9 cells, thereby affording characteristic IC50 values for each compound tested. More specifically, inhibition of [^3H]SP binding to human IM-9 cells by compounds are determined in assay buffer (50 mM Tris-HCl (pH 7.4), 1 mM MnCl2, 0.02 % bovine serum albumin, bacitracin (40 µg/ml), leupeptin (4 µg/ml), chymostatin (2 µg/ml) and phosphoramidon (30 µg/ml)). The reaction is initiated by the addition of cells to assay buffer containing 0.56 nM [^3H]SP and various concentrations of compounds (total volume; 0.5 ml) and allowed to incubate for 120 min at 4 °C. […] Nonspecific binding is defined as the radioactivity remaining in the presence of 1 µM SP. The filters are placed into tubes and counted using liquid scintillation counter.

gerbils = assay: [Sar^9, Met(O2)^11]substance P-induced tapping test; assay type: in vivo; settings: Meriones unguiculatus, at 0.3mg/kg scoring
Protocol: More specifically, gerbils are lightly anesthetized with ether and the skull surface is exposed. […] Following injection, gerbils are placed in 1 L beaker individually and monitored for repetitive hind paw tapping. Some compounds prepared in the following Examples were tested in accordance with these testing methods.

T1 sequence (P22002 whole entry, other chains not shown): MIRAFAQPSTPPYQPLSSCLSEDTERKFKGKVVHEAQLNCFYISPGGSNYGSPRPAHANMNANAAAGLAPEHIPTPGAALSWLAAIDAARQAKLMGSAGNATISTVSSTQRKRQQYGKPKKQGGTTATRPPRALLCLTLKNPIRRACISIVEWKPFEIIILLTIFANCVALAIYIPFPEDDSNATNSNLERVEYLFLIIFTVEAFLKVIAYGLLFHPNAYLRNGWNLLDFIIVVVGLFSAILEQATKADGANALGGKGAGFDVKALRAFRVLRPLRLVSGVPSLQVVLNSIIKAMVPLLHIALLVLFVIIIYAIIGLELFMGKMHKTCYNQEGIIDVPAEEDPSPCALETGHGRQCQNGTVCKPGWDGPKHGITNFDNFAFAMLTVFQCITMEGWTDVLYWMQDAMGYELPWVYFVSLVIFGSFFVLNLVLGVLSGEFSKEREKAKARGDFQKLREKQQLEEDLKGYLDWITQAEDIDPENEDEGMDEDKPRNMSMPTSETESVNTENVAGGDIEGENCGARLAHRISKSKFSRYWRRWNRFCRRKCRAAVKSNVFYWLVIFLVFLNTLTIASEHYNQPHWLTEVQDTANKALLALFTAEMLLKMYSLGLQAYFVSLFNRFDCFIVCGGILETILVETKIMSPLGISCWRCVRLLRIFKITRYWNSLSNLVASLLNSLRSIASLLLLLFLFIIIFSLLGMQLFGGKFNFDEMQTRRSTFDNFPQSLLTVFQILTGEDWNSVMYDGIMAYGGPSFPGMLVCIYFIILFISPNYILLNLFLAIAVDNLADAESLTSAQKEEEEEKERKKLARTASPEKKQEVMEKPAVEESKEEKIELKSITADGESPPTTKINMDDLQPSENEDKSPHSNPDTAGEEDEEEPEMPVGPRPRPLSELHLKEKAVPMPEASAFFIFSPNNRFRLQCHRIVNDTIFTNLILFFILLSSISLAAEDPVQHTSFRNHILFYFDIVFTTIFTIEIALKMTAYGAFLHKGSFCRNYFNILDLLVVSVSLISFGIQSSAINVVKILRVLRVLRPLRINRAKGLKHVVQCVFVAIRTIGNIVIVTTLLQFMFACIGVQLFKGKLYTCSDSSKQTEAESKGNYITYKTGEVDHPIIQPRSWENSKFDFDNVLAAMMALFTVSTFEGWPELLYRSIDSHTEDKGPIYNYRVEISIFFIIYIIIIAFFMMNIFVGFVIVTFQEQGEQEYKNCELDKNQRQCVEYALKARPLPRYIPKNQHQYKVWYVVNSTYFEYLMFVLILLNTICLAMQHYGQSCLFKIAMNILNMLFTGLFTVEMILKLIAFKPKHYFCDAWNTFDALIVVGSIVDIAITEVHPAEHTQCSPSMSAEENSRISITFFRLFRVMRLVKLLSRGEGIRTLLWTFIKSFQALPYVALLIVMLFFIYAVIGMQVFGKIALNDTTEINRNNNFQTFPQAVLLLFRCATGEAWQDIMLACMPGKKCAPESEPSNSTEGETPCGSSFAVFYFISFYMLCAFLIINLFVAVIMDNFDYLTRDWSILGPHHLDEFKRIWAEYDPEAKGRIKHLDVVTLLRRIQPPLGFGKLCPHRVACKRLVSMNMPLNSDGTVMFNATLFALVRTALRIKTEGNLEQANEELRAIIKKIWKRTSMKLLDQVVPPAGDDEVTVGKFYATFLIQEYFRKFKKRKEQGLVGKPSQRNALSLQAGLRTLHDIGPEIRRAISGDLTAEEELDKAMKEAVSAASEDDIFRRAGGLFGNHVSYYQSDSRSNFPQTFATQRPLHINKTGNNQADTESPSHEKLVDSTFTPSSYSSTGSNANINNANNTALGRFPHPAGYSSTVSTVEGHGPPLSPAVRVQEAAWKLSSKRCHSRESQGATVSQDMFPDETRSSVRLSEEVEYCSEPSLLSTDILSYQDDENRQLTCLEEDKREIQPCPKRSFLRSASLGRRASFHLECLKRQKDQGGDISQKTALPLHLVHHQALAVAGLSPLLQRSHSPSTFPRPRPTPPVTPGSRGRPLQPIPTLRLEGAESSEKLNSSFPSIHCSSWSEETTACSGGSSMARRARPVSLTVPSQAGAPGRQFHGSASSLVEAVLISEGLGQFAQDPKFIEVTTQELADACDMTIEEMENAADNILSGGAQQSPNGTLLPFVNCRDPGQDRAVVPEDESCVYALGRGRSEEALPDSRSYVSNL
T1 sequence (P54290 25-944 partner limits assumed, other chains not shown): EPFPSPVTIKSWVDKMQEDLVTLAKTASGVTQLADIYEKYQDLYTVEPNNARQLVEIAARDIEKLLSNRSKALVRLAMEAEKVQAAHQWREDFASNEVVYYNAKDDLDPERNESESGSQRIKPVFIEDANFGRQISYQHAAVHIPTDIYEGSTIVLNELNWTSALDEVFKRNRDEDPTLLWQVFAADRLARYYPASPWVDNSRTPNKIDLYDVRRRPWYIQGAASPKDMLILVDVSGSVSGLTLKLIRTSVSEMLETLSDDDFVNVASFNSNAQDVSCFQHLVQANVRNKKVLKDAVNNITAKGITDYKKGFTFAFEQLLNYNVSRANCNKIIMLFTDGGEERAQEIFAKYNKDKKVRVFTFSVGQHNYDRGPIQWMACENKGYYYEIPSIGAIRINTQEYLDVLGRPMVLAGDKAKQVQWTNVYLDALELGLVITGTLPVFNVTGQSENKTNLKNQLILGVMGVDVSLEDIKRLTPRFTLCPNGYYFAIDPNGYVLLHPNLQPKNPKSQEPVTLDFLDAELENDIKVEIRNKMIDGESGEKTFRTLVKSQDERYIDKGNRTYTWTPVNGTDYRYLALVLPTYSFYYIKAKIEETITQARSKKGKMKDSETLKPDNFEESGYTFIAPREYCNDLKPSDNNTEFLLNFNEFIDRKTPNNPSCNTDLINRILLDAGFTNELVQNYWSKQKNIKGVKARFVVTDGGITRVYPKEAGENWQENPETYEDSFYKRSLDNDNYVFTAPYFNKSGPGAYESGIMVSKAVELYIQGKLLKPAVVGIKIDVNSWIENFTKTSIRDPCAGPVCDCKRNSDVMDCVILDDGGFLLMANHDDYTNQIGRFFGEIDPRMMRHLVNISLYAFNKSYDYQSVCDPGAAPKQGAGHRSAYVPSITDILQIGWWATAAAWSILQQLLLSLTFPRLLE
T1 sequence (P54290 945-1091 partner limits assumed, other chains not shown): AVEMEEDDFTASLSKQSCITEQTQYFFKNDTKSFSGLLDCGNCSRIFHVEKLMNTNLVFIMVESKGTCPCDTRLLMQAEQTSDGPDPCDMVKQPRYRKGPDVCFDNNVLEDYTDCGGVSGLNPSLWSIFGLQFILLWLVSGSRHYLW

IC50 (Ca^2+ channel): > 3000 nM
IC50 [1]: < 0.1 nM
Compound: COc1cc2c(cc1CN[C@H]1CCCN[C@H]1c1ccccc1)N(C)C(=O)CC2 [Compound 21, (2S,3S)-3-(6-Methoxy-1-methyl-2-oxo-1,2,3,4-tetrahydroquinolin-7-yl)methylamino-2-phenylpiperidine dihydrochloride]
inhibition at 0.3 mg/kg (gerbils): 52%
